According to ChEMBL document CHEMBL5096162, “A review on ferulic acid and analogs based scaffolds for the management of Alzheimer's disease” (Eur J Med Chem, 2021):
pIC50, pKi: −log10 of the molar value.

Columns and labels:
[1] = Antioxidant activity of compound assessed as trolox equivalent of AAPH radical scavenging activity preincubated for 15 mins followed by AAPH addition and measured every 1 min for 60 mins by ORAC-FL assay; assay type: functional; conditions: time 75.0 min
[2] = Antioxidant activity assessed as DPPH radical scavenging activity at 200 uM incubated for 2 hrs in dark by spectrophotometric analysis; assay type: functional
[3] = tested on: SH-SY5Y; experiment: Neuroprotective activity against H2O2-induced cytotoxicity in human SH-SY5Y cells assessed as increase in cell viability at 10 uM preincubated for 24 hrs followed by H2O2 stimulation and measured after 24 hrs by MTS assay; assay type: functional; conditions: time 48 hrs
[4] = target: Amyloid-beta precursor protein (Homo sapiens) (UniProt P05067); experiment: Inhibition of self-induced amyloid beta (1 to 40) (unknown origin) aggregation at 20 uM incubated for 48 hrs by ThT-based fluorimetric assay
[5] = target: T1, Amine oxidase [flavin-containing] B (Homo sapiens, UniProt P27338); experiment: Inhibition of recombinant human MAO-B using kynuramine as substrate preincubated for 15 mins followed by enzyme addition and further incubated for 20 mins by fluorescence microplate reader analysis
T1 sequence (P27338 whole entry): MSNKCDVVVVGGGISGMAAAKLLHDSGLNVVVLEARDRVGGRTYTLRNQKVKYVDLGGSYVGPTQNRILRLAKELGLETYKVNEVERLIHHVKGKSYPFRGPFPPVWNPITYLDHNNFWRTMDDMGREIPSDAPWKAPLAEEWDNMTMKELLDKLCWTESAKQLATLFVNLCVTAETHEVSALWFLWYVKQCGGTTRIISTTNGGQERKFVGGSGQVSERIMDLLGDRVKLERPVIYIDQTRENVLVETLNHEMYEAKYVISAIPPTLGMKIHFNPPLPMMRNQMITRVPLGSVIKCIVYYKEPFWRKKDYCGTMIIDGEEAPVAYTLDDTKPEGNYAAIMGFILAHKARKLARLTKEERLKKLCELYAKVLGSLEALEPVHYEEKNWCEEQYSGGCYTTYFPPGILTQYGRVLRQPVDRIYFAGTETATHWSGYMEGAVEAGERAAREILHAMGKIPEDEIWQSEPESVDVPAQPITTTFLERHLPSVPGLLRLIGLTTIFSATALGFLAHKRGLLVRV

[6] = target: T2, Amine oxidase [flavin-containing] A (Homo sapiens, UniProt P21397); experiment: Inhibition of human MAO-A using p-tyramine as substrate preincubated for 15 mins followed by susbtrate addition and measured after 15 mins by HRP and Amplex Red reagent based fluorometric analysis
T2 sequence (P21397 whole entry): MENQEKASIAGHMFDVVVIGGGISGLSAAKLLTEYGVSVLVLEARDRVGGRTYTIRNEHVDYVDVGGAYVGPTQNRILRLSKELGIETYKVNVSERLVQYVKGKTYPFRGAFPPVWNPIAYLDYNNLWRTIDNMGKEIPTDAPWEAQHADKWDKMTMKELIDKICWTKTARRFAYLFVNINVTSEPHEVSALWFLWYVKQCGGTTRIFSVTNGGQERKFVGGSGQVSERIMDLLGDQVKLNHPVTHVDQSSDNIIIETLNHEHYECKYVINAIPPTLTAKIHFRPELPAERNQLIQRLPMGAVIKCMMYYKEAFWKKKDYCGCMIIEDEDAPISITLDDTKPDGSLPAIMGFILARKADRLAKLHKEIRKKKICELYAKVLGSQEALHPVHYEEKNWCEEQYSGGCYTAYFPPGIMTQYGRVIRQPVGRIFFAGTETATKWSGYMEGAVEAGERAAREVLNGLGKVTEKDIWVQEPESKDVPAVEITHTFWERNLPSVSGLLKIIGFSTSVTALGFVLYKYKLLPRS

[7] = target: T1, Amine oxidase [flavin-containing] B; experiment: Inhibition of human MAO-B using p-tyramine as substrate preincubated for 15 mins followed by susbtrate addition and measured after 15 mins by HRP and Amplex Red reagent based fluorometric analysis
[8] = target: Acetylcholinesterase (Homo sapiens, UniProt P22303); experiment: Inhibition of human AchE preincubated for 15 mins followed by substrate addition and measured for 5 mins using acetylthiocholine iodide as substrate by DTNB reagent based Ellman's method
[9] = target: Acetylcholinesterase (Electrophorus electricus, UniProt O42275); experiment: Inhibition of electric eel AchE preincubated for 30 mins followed by substrate addition using acetylthiocholine iodide as substrate by Ellman's method
[10] = target: T3, Cholinesterase (Homo sapiens, UniProt P06276); experiment: Inhibition of human BuchE preincubated for 30 mins followed by substrate addition using butyrylthiocholine iodide as substrate by Ellman's method
[11] = target: T3, Cholinesterase
Description: Inhibition of human BuchE preincubated for 6 mins followed by substrate addition using butyrylthiocholine iodide as substrate by DTNB reagent based Ellman method

[12] = tested on: PC-12; experiment: Neuroprotective activity against amyloid beta (1 to 42)-induced cytotoxicity in rat PC-12 cells assessed as increase in cell viability at 50 uM preincubated for 2 hrs followed by amyloid beta (1 to 42) stimulation and measured after 24 hrs by MTT assay; assay type: functional; conditions: time 26 hrs
[13] = target: Cholinesterase (Equus caballus, UniProt P81908); experiment: Inhibition of equine serum BuchE preincubated for 6 mins followed by substrate addition using butyrylthiocholine iodide as substrate by DTNB reagent based Ellman method
[14] = target: Amyloid-beta precursor protein (Homo sapiens) (UniProt P05067); experiment: Inhibition of self-induced amyloid beta (1 to 42) (unknown origin) aggregation at 20 uM incubated for 46 to 48 hrs in dark by ThT-based fluorimetric assay; conditions: time 46-48 hrs

Amyloid-beta precursor protein (Homo sapiens), sequence (P05067 whole entry): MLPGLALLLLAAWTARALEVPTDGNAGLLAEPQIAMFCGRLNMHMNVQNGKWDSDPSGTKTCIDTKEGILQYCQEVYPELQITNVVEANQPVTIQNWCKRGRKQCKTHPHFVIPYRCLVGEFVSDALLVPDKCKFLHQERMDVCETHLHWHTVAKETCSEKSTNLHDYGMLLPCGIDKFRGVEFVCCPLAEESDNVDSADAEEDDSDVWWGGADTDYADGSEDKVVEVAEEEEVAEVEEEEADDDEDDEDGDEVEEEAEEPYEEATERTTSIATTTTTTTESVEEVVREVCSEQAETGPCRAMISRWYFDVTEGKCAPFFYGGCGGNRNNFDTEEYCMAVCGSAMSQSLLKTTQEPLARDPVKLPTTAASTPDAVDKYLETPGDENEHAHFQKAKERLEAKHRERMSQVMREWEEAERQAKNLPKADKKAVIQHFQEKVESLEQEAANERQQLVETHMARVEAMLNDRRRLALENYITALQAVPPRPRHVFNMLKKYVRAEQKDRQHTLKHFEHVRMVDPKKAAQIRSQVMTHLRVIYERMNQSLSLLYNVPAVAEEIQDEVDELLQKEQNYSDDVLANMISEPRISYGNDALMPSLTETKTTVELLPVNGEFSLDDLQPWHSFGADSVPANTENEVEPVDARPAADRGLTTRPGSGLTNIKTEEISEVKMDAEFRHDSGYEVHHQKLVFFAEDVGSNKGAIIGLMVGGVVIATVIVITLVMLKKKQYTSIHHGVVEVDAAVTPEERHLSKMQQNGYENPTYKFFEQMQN
T3 sequence (P06276 whole entry): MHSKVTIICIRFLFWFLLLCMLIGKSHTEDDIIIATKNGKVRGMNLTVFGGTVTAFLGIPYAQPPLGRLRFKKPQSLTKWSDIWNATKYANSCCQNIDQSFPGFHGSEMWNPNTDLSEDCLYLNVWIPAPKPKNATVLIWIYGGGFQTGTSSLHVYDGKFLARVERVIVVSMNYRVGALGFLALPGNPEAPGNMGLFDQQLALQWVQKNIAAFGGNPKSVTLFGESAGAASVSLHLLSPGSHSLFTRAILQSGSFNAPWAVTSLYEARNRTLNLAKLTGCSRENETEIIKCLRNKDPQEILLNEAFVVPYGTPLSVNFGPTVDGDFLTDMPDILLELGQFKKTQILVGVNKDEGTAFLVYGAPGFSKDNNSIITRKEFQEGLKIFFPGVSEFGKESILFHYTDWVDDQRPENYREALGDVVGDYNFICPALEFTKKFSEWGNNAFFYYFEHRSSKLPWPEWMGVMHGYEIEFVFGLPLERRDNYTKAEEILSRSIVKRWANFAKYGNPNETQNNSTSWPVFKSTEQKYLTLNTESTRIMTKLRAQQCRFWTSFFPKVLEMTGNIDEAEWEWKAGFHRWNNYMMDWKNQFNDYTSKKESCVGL
Cholinesterase (Equus caballus, UniProt P81908), sequence (P81908 whole entry): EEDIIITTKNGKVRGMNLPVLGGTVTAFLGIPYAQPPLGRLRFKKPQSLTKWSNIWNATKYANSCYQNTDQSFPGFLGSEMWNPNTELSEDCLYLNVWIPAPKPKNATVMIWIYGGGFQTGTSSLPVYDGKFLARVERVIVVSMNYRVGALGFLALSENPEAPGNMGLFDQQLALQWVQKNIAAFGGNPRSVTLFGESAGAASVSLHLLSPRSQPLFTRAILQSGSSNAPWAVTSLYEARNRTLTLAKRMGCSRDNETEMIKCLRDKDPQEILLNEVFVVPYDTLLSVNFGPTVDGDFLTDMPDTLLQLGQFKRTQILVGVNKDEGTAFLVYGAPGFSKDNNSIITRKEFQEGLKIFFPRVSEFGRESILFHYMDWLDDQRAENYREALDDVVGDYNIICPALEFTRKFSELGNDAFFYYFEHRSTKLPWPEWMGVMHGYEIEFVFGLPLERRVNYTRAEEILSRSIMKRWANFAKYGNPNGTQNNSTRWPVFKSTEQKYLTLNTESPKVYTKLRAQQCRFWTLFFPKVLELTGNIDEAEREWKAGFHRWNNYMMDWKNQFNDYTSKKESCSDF
Acetylcholinesterase (Electrophorus electricus, UniProt O42275), sequence (O42275 whole entry): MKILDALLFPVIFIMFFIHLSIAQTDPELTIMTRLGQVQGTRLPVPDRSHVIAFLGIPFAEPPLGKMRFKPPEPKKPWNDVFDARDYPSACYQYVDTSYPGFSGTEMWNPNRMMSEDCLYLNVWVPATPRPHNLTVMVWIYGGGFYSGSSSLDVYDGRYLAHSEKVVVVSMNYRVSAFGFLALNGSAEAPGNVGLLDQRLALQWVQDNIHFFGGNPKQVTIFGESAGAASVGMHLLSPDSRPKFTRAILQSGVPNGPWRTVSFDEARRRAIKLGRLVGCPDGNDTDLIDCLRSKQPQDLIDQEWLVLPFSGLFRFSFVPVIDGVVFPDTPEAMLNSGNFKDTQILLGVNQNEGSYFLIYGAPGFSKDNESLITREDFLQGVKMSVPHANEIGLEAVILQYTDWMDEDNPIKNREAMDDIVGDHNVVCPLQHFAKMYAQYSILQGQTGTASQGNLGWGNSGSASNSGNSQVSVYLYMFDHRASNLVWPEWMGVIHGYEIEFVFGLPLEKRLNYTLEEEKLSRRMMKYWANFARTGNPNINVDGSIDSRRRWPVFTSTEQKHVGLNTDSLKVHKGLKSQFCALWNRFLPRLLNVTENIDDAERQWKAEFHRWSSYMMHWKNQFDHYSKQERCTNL
Acetylcholinesterase (Homo sapiens, UniProt P22303), sequence (P22303 whole entry): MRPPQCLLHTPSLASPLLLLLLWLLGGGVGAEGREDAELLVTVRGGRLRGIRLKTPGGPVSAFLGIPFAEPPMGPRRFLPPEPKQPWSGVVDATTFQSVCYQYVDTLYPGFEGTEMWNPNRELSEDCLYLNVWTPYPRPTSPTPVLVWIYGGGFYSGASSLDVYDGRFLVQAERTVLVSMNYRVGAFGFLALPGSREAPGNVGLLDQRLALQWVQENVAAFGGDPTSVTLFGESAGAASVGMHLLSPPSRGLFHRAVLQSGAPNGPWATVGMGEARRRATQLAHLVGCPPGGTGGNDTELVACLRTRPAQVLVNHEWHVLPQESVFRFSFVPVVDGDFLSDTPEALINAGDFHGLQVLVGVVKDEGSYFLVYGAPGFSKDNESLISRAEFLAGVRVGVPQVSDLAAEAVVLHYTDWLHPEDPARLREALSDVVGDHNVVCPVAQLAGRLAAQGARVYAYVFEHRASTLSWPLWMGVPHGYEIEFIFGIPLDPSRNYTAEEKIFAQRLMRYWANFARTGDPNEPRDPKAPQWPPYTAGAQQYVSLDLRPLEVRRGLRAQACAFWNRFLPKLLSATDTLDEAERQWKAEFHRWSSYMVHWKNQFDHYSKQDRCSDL

For `O=C(NCc1ccccc1)C(c1cc2ccccc2nc1Cl)N(Cc1ccccc1)C(=O)/C=C/c1ccc(O)c(O)c1` (centres undefined), the Activity [1] was 6.86 equiv, the Activity [2] was > 77% and the Activity [3] was 21.87%. The inhibition [4] was 62.7%.

Work on `O=C(/C=C/c1ccc(O)cc1)OCCc1ccccc1` yielded a pIC50 [5] of 7.89.

`COc1ccc(/C=C/C(=O)NCCc2ccccc2)cc1O` showed a pKi [6] of 5.71 and a pKi [7] of 6.96.

In the case of `C[N+](C)(C)CCNC(=O)/C=C/c1ccc(O)c(O)c1`, the pIC50 [8] was 5.14.

`COc1cc(/C=C/C(=O)O[C@H]2C[C@H]3O[C@H](OC(=O)Nc4ccccc4)C[C@H]3O2)ccc1O` showed a pIC50 [9] of 4.57 and a pIC50 [10] of 4.54.

Work on `COc1ccc(/C=C/C(=O)Nc2cc[n+](Cc3ccc(F)cc3)cc2)cc1OC.[Br-]` yielded a pIC50 [11] of 8.36, an Activity [12] of 66.6% and a pIC50 [13] of 8.59. For the same compound, the inhibition [14] was 65.6%.
